One compound from patent publication US9801922B2, “Compositions and methods of treating cancer” (UNIVERSITY OF IOWA RESEARCH FOUNDATION, priority 2011, dated 2017) can be followed below.

In data set [1] the test system is SUM159 cells. Description: DHE oxidation (intracellular superoxide). The data set is classed as cell-based, human. The protocol: FIG. 10: DHE oxidation of BSO,DTPP and AUR exposed SUM159 cells. Asynchronously growing cultures of SUM159 were plated and treated as described in FIG. 1. Monolayer cultures were harvested and trypsinized, washed once with PBS and labeled 40 minutes with 5 μM DHE (in 0.1% DMSO) in PBS containing 5 mM pyruvate at 37° C. Each sample was then analyzed for the Mean fluorescence Intensity (MFI) of 10,000 cells by flow cytometry. Samples were assayed in triplicate; mean±1 SD of 2 experiment containing treatment dishes per group (n=6). *p<0.001 as compared to Control.
Estimation of intracellular superoxide levels using Dihydroethidium (DHE) oxidation: Steady-state levels of superoxide were estimated using the fluorescent dyes, dihydroethidium (DHE) purchased from Molecular Probes (Eugene, Oreg.). Cells were plated and treated for as described earlier. On day 6, the cells were trypsinized and washed with 5 mM/L pyruvate containing PBS once then labeled with DHE ([…], in 0.1% DMSO, 40 min) at 37° C. After labeling, cells were kept on ice. Samples were analyzed using a FACScan flowcytometer (Becton Dickinson Immunocytometry System, INC., Mountain View, Calif.) (excitation 488 nm, emission 585 nm band-pass filter). The mean fluorescence intensity (MFI) of 10,000 cells was analyzed in each sample and corrected for autofluorescence from unlabeled cells. The MFI data was normalized to control levels.

For the next data set, the system named is HMECs. Nature of the data set: CDCFH2 / CDCF probe labeling (intracellular hydroperoxides), HMEC. Type of data set: cell-based, human. The settings on record: oxidation-insensitive probe. As to the method: (§1) FIGS. 5A-5D: CDCFH2 oxidation sensitive and CDCF oxidation insensitive probe labeling of BSO, DTPP, and AUR exposed SUM159 and HMECs cells. Asynchronously growing cultures of SUM159 (Panels A, B) and HMECs (Panes C, D) were plated and treated as described in FIG. 1. Monolayer cultures were harvested and trypsinized, washed once with PBS then labeled in PBS with either CDCFH2 (Panesl A, C) or CDCF (Panels B, D)(10 μg/mL, in 0.1% DMSO 15 minutes) at 37° C. Mean fluorescence intensity (MFI) of 10,000 cells was analyzed by flow cytometry. Samples were assayed in triplicate; Mean±1 SEM of 3 separate experiments containing 3 treatment dishes per group (n=9), *p<0.001 as compared to Control.
Measurement of Intracellular Hydroperoxides: Steady-state levels of hydroperoxides were estimated using the oxidation sensitive {5-(and-6)-carboxy-2′,7′-dichlorodihydrofluorescein diacetate, (CDCFH2)} and oxidation-insensitive {5-(and-6)-carboxy-2′,7′-dichlorofluorescein diacetate, (CDCF)} fluorescent dyes purchased from Molecular Probes. Cells were plated and treated with BSO, DTPP and AUR as described above. […] Samples were analyzed using a FACScan flowcytometer (Becton Dickinson Immuno-cytometry System, INC., Mountain View, Calif.) (excitation 488 nm, emission 530 nm band-pass filter). The MFI of 10,000 cells was analyzed in each sample and corrected for autofluorescence from unlabeled cells. […]

The subject of data set [2] is SUM159 cells. Nature of the data set: CDCFH2 / CDCF probe labeling (intracellular hydroperoxides), SUM159. The data set is classed as cell-based, human. The note with it: oxidation-sensitive probe. As to the method: as §1
FIG. 9: Catalase inhibitable CDCFH2 oxidation in BSO, DTPP, and AUR exposed SUM159 cells. […] Mean fluorescence intensity (MFI) of 10,000 cells was analyzed by flow cytometry. […]
Measurement of Intracellular Hydroperoxides: Steady-state levels of hydroperoxides were estimated using the oxidation sensitive {5-(and-6)-carboxy-2′,7′-dichlorodihydrofluorescein diacetate, (CDCFH2)} and oxidation-insensitive {5-(and-6)-carboxy-2′,7′-dichlorofluorescein diacetate, (CDCF)} fluorescent dyes purchased from Molecular Probes. […] Samples were analyzed using a FACScan flowcytometer (Becton Dickinson Immuno-cytometry System, INC., Mountain View, Calif.) (excitation 488 nm, emission 530 nm band-pass filter). […]

A further data set concerns A375 melanoma cells. Nature of the data set: MTT survival fraction analysis, A375. The data set is classed as cell-based.

As for `CCCCCCCCCC[P+](c1ccccc1)(c1ccccc1)c1ccccc1` [DTPP, Decyl-Triphenylphosphonium], the “increase of DHE oxidation” value with SUM159 cells [1] stood at 1.5 fold. Further, in the data set with HMECs, the “CDCF labeling signal relative to control” value amounted to 2 fold. In the data set with SUM159 cells [2], the “increase in CDCFH2 oxidation compared to control” value worked out at 2 fold. For the same compound, the “cytotoxicity in the absence of BSO, in words” value in the data set on A375 melanoma cells is on record as “intermediate cytotoxicity”.
